Where a SMILES comes first, the peptide text is derived from it. Bridges are numbered along the chain shown (N, C = ends). Where no end group is shown, it is not given here. [ ]: non-standard residue; d: D form. S5 = C=CCCC[C@](C)(N)C(=O)O
How the values were obtained:
S. aureus [1] = assay: S. aureus adhesion to HaCaT human keratinocyte cells (bacterial adhesion assay, CFU); assay type: cell-based, Staphylococcus aureus; settings: 200 nM peptide; FIG. 1B
Protocol: HaCaT human keratinocyte cells were cultured in DMEM supplemented with 10% (v/v) foetal bovine serum. Cells were subcultured by trypsinisation. For bacterial adhesion assays, HaCaT cells (10,000 cells/well) were grown overnight in 96-well plates.
For infection assays, bacterial were cultured from a single agar plate colony overnight in 5 ml of the appropriate growth medium. Then cultures were harvested by centrifugation, washed with 10 ml PBS, re-suspended in growth medium and incubated to achieve an OD600 equivalent to 5×10^8 CFU/ml. Cultures were again harvested by centrifugation, washed twice with PBS and re-suspended in DMEM at an appropriate density.

S. aureus [2] = settings: reference [7]; cited from earlier work
S. aureus SH1000 [3] = settings: cited from earlier work
P. aeruginosa PA01 = assay: Stability to bacterial cultures (P. aeruginosa PA01), residual activity in infection assay on HaCaT; assay type: in vitro ADME, Pseudomonas aeruginosa; settings: 4 hrs incubation with growing culture
[4] = Protease stability: trypsin digestion, LC-MS; assay type: in vitro ADME; settings: 100 ug/ml peptide, trypsin 2 mg/ml, 37° C., 18 hours; read-out: peptide still undigested in trypsin at 18 hours
trypsin = assay: Protease stability: trypsin digestion, LC-MS; assay type: in vitro ADME; settings: 100 ug/ml peptide, trypsin 2 mg/ml, 37° C., 1 hour
[5] = Protease stability: chymotrypsin digestion, LC-MS; assay type: in vitro ADME; settings: 100 ug/ml peptide, chymotrypsin 2 mg/ml, 25° C., 18 hours; read-out: peptide still undigested in chymotrypsin at 18 hours
chymotrypsin = assay: Protease stability: chymotrypsin digestion, LC-MS; assay type: in vitro ADME; settings: 100 ug/ml peptide, chymotrypsin 2 mg/ml, 25° C., 1 hour
S. aureus SH1000 [6] = tested on: S. aureus SH1000
Protocol: Protease stability was assessed using trypsin, chymotrypsin and human serum. Peptides at 100 μg/ml were incubated in 100 mM ammonium bicarbonate+2 mM calcium chloride were digested using trypsin (2 mg/ml), chymotrypsin (2 mg/ml) or human serum (25% (v/v)) for 1 or 18 hours. Digestion was performed at 37° C. for trypsin and human serum, and 25° C. for chymotrypsin. Reaction was stopped with 2.5% formic acid for trypsin and chymotrypsin. Human serum proteins were precipitated with acetonitrile. Supernatants were analysed on LC-MS. Stability to bacterial proteases was also analysed in cultures of S. aureus SH100 and P. aeruginosa PA01. 20 nM peptides in Keratinocyte-Serum Free Medium (KFSM) were incubated with mid-log phase cultures of bacteria for 4 hours. Bacteria were then removed by centrifugation and the supernatants used in bacterial adhesion assays, as described below.
Human cells in 96-well plates were washed with 200 ul HBSS and incubated with 200 μl 5% (w/v) BSA for 1 hour at 37° C., washed twice with 200 μl HBSS prior to incubation for 1 hour at 37° C. with peptides diluted in DMEM, or DMEM alone for control well. After removal of peptide solutions, wells were infected for 1 hour at 37° C. with 50 μl bacteria suspended in DMEM at optimised multiplicities of infection (MOI). […]

S. aureus SH1000 [7] = assay: Mouse in vivo skin infection model; set-up: species or system Staphylococcus aureus; settings: mice, 200 nM peptide mixed with S. aureus SH1000 in a bandage on depilated skin; FIG. 9
Protocol: C57/Bl6 mice were shaved to produce a bare area of approximately 2×2 cm. Depilatory cream was applied to depilate this area. A bandage was applied that contained a saline solution containing 200 nM of mouse 800-CAP, its scrambled control or human 800ii, and S. aureus SH1000. After 5 days, the mice were sacrificed and the depilated skin processed to release bacteria. The infection was assessed as CFU, and normalised to untreated control mice (=100). The experiment was performed 3 times using groups of 3 mice for each condition. Data are shown as the means of each separate experiment. Significance of the difference from 100 was calculated using a one-sample t test.

1: synthetic peptide with helix-preserving Ala residues replacing Glu26/Arg29 (DAPQAETLKAIHYALN; Glu26/Arg29 mutant 800-Cap peptide) [compound 1]
inhibitory activity against S. aureus adhesion to human keratinocyte line HaCaT (S. aureus [1]): no activity

6: synthetic peptide with helix-preserving Ala residues replacing Ile35/Leu39 (DEPQRETLKAAHYAAN; Ile35/Leu39 mutant 800-Cap peptide) [compound 6]
inhibitory activity against S. aureus adhesion to human keratinocyte line HaCaT (S. aureus [1]): no activity

800: short peptide derived from the primary sequence of the tetraspanin CD9 large extracellular domain (EC2); previously published (EPQRETLKAIHYALN; 800 peptide sequence) [compound 800]
functional activity, time and dose dependence (S. aureus [2]): functionally active in a time and dose-dependent manner
reduction of adherence of Staphylococcus aureus binding to human keratinocyte cells (S. aureus [2]): can reduce the adherence
activity against S. aureus adhesion to a wound model of human skin (S. aureus SH1000 [3]; previously published (Ventress et al., 2016)): active
bacterial burden in a 3D model of human skin (S. aureus SH1000 [3]; reference [7]): effective in lowering bacterial burden

CC[C@H](C)[C@H](NC(=O)[C@H](C)NC(=O)[C@H](CCCCN)NC(=O)[C@H](CC(C)C)NC(=O)[C@]1(C)CCCC=CCCC[C@](C)(NC(=O)[C@H](CCC(=O)O)NC(=O)[C@@H](N)CC(=O)O)C(=O)N[C@@H](CCC(N)=O)C(=O)N[C@@H](CCCNC(=N)N)C(=O)N[C@@H](CCC(=O)O)C(=O)N1)C(=O)N[C@@H](Cc1c[nH]cn1)C(=O)N[C@@H](Cc1ccc(O)cc1)C(=O)N[C@@H](C)C(=O)N[C@@H](CC(C)C)C(=O)N[C@@H](CC(N)=O)C(=O)O [800i] (H-DE[S5]QRE[S5]LKAIHYALN-OH; staple 3-7; N-terminus and C-terminus assumed)
resistance of peptide activity to P. aeruginosa PA01 culture (P. aeruginosa PA01): resistant

CC[C@H](C)[C@@H]1NC(=O)[C@@](C)(NC(=O)[C@H](CCCCN)NC(=O)[C@H](CC(C)C)NC(=O)[C@@H](NC(=O)[C@H](CCC(=O)O)NC(=O)[C@H](CCCNC(=N)N)NC(=O)[C@H](CCC(N)=O)NC(=O)[C@@H]2CCCN2C(=O)[C@H](CCC(=O)O)NC(=O)[C@@H](N)CC(=O)O)[C@@H](C)O)CCCC=CCCC[C@@](C)(C(=O)N[C@@H](CC(C)C)C(=O)N[C@@H](CC(N)=O)C(=O)O)NC(=O)[C@H](Cc2ccc(O)cc2)NC(=O)[C@H](Cc2c[nH]cn2)NC1=O [800ii] (H-DEPQRETLK[S5]IHY[S5]LN-OH; staple 10-14; N-terminus and C-terminus assumed)
remaining at 18 h, 100 µg/ml [4]: 50%
digestion by trypsin after 1 hour (trypsin): not digested at all
remaining at 18 h, 100 µg/ml [5]: 20%
digestion by chymotrypsin after 1 hour (chymotrypsin): not digested at all
resistance of peptide activity to P. aeruginosa PA01 culture (P. aeruginosa PA01): resistant

DEPQRETLKAIHYALN [800-Cap]
digestion by trypsin after 1 hour (trypsin): completely digested
digestion by chymotrypsin after 1 hour (chymotrypsin): completely digested
peptide activity degraded by incubation with S. aureus SH1000 culture (S. aureus SH1000 [6]): ~50%
peptide activity degraded by incubation with P. aeruginosa PA01 culture (P. aeruginosa PA01; residual activity on S. aureus SH1000 / HaCaT): ~50%

SEQ ID NO: 17: shorter form of peptide 800-Cap (DEPQRETL; first short form of 800-Cap)
inhibitory activity against S. aureus adhesion to human keratinocyte line HaCaT (S. aureus [1]): little or no inhibitory activity

SEQ ID NO: 18: shorter form of peptide 800-Cap (KAIHYALN; second short form of 800-Cap)
inhibitory activity against S. aureus adhesion to human keratinocyte line HaCaT (S. aureus [1]): little or no inhibitory activity

mouse equivalent of 800-CAP: the mouse equivalent of 800-CAP; probably SEQ ID NO: 6 (DEPQRETLKAIHMALD; listed as Mus musculus)
bacterial load in skin after 5 days (S. aureus SH1000 [7]): significantly reduced

peptide 7: synthetic peptide with helix-preserving Ala residues replacing Pro27/Thr31 (DEAQREALKAIHYALN; Pro27/Thr31 mutant 800-Cap peptide)
inhibitory activity against S. aureus adhesion to human keratinocyte line HaCaT (S. aureus [1]): retained full activity
